Our source for the inhibition and Ki values is ChEMBL document CHEMBL2429832, “N-substituted 8-aminopentacyclo[5.4.0.0(2,6).0(3,10).0(5,9)]undecanes as σ receptor ligands with potential neuroprotective effects” (Bioorg Med Chem, 2013).

pKi: −log10 of the molar value. The source made the active and inactive calls. No cut-off for these calls is given here.

One may read the inhibition as the change of the read-out against control, counted positive when it falls. What is called pKi is the Ki on a negative log10 scale, so that one unit is a factor of ten. High values mean a small Ki, low ones a large Ki.

Assay [1] has as its system RAW264.7. Put plainly: Neuroprotective activity in mouse RAW264.7 cells assessed as inhibition of LPS-stimulated nitric oxide release at 30 uM after 20 to 24 hrs by Griess assay relative to control. The assay is classed as functional.
Assay [2] has as its system RAW264.7. Description: Neuroprotective activity in mouse RAW264.7 cells assessed as inhibition of LPS-stimulated nitric oxide release at 50 uM after 20 to 24 hrs by Griess assay relative to control. The assay is classed as functional. (Nitrite, measured by Griess reagent, commonly stands in for NO production.)
Assay [3] has as its system RAW264.7. Description: Neuroprotective activity in mouse RAW264.7 cells assessed as inhibition of LPS-stimulated nitric oxide release after 20 to 24 hrs by Griess assay. The format is functional, cell-based.
Assay [4] deals with 5-hydroxytryptamine receptor 5A (Homo sapiens, UniProt P47898). Put plainly: Inhibition of 5-HT5A receptor (unknown origin) by PDSP assay.
Chain of 5-hydroxytryptamine receptor 5A (P47898 whole entry): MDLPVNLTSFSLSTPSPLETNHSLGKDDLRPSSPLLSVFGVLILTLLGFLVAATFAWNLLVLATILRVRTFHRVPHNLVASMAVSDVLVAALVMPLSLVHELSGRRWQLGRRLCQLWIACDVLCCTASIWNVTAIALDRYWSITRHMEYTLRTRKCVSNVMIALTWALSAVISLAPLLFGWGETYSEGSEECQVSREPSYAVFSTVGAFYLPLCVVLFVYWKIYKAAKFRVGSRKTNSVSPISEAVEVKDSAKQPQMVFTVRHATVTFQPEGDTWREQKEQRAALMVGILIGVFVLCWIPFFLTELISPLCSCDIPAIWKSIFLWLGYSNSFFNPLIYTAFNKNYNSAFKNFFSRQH
Assay [5] concerns the target Kappa-type opioid receptor (Homo sapiens, UniProt P41145). Put plainly: Inhibition of kappa opioid receptor (unknown origin) by PDSP assay.
In assay [6] the target is Sodium-dependent noradrenaline transporter (Homo sapiens, UniProt P23975). Description: Displacement of [3H]-nisoxetine from human NET expressed in HEK cell membranes. Further details: species or system HEK293. On the technique in general: Loss of bound radioactivity is the signal in a displacement assay; it reports binding, not function.
Chain of Sodium-dependent noradrenaline transporter (P23975 whole entry): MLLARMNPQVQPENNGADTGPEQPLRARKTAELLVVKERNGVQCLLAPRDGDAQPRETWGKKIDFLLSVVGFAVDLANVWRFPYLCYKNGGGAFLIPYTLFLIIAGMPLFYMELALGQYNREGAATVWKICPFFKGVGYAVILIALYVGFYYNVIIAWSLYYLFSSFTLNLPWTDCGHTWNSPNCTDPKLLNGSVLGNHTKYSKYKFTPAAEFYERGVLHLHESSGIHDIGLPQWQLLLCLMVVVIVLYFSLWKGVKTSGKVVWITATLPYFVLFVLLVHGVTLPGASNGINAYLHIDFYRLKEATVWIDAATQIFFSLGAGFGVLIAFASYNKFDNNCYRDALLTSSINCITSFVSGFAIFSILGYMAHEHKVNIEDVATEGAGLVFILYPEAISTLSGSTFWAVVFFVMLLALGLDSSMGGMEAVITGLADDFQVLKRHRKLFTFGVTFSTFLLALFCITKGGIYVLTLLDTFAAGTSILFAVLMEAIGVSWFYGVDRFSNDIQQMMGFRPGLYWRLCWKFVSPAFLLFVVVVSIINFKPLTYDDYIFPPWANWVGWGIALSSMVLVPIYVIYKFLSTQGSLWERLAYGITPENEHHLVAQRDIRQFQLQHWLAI
The target of assay [7] is Histamine H3 receptor (Homo sapiens, UniProt Q9Y5N1). Put plainly: Inhibition of histamine H3 receptor (unknown origin) by PDSP assay.
Chain of Histamine H3 receptor (Q9Y5N1 whole entry): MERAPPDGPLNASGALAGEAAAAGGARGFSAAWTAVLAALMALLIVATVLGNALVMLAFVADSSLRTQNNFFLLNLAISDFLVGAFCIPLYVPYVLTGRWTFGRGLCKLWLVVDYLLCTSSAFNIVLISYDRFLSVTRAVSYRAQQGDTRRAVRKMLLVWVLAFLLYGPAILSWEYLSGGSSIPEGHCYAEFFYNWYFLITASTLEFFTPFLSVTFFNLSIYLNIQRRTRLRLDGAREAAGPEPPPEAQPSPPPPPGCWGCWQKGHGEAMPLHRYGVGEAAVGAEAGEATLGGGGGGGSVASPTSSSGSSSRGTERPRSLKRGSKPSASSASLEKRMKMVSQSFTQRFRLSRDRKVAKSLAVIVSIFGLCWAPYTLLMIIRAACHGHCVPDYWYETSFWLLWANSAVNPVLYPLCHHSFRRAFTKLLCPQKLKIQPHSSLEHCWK
The target of assay [8] is Delta-type opioid receptor (Homo sapiens, UniProt P41143). Put plainly: Inhibition of delta opioid receptor (unknown origin) by PDSP assay.
Assay [9] concerns the target Mu-type opioid receptor (Homo sapiens, UniProt P35372). Put plainly: Inhibition of mu opioid receptor (unknown origin) by PDSP assay.
Assay [10] relates to RAW264.7. Put plainly: Neuroprotective activity in mouse RAW264.7 cells assessed as inhibition of LPS-stimulated nitric oxide release at 75 uM after 20 to 24 hrs by Griess assay relative to control. The assay is classed as functional.
The target of assay [11] is T1, Alpha-1B adrenergic receptor (Homo sapiens, UniProt P35368).
T1 sequence (P35368 whole entry): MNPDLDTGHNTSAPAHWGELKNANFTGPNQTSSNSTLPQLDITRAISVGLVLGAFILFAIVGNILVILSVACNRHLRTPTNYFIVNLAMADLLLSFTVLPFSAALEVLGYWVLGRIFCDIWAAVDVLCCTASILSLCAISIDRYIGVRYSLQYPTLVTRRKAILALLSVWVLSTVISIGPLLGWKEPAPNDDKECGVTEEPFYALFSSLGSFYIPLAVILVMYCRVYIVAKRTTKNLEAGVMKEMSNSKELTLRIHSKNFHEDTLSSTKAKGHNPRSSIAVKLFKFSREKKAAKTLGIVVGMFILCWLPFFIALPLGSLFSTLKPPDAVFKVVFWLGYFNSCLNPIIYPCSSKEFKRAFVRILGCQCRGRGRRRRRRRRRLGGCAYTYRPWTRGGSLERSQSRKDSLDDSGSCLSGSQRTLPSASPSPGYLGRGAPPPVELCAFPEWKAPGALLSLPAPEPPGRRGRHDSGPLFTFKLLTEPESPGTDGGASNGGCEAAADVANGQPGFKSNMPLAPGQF
Put plainly: Inhibition of adrenergic alpha1B receptor (unknown origin) by PDSP assay.

Assay [12] deals with D(4) dopamine receptor (Homo sapiens, UniProt P21917). Put plainly: Inhibition of dopamine D4 receptor (unknown origin) by PDSP assay.
Chain of D(4) dopamine receptor (P21917 whole entry): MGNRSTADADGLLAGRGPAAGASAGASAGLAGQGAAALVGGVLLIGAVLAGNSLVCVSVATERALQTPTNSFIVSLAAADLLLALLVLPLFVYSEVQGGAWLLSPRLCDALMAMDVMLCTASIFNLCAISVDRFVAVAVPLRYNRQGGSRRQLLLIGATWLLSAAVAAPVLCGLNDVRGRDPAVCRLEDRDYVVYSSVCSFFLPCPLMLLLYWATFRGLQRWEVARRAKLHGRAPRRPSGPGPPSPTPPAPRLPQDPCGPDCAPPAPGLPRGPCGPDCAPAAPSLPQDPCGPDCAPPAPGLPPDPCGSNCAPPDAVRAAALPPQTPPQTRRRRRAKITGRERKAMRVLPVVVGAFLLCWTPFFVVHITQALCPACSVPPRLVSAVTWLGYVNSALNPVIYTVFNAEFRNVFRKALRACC
Assay [13] has as its target Histamine H4 receptor (Homo sapiens, UniProt Q9H3N8). Description: Inhibition of histamine H4 receptor (unknown origin) by PDSP assay.
In assay [14] the target is 5-hydroxytryptamine receptor 6 (Homo sapiens, UniProt P50406). Put plainly: Inhibition of 5-HT6 receptor (unknown origin) by PDSP assay.
Chain of 5-hydroxytryptamine receptor 6 (P50406 whole entry): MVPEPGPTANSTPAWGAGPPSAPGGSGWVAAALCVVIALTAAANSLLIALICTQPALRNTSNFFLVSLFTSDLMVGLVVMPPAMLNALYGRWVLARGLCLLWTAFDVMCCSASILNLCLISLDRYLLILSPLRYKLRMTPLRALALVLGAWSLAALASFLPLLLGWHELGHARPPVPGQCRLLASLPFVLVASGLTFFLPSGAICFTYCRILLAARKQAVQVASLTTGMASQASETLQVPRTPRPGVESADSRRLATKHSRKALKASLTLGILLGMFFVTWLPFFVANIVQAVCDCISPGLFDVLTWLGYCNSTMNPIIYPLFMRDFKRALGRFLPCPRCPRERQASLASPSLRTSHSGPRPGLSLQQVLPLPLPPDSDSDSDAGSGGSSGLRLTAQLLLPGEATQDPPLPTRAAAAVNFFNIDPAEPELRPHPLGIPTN
Assay [15] has as its target 5-hydroxytryptamine receptor 2A (Homo sapiens, UniProt P28223). Put plainly: Inhibition of 5-HT2A receptor (unknown origin) by PDSP assay.
The species named for assay [16] is Homo sapiens. Put plainly: Inhibition of NMDA receptor PCP binding site (unknown origin) at 10 uM by PDSP assay relative to control.
Assay [17] has as its target 5-hydroxytryptamine receptor 2B (Homo sapiens, UniProt P41595). Description: Inhibition of 5-HT2B receptor (unknown origin) by PDSP assay.
Assay [18] addresses 5-hydroxytryptamine receptor 7 (Homo sapiens, UniProt P34969). Put plainly: Inhibition of 5-HT7 receptor (unknown origin) by PDSP assay.
Assay [19] is described as follows: Inhibition of Ca2+ channel (unknown origin) by PDSP assay. Further details: species or system Homo sapiens.
Assay [20] relates to RAW264.7. Description: Neuroprotective activity in mouse RAW264.7 cells assessed as inhibition of LPS-stimulated nitric oxide release up to 100 uM after 20 to 24 hrs by Griess assay. The assay is classed as functional, cell-based.
Assay [21] concerns the target 5-hydroxytryptamine receptor 1B (Homo sapiens, UniProt P28222). Description: Inhibition of 5-HT1B receptor (unknown origin) by PDSP assay.
Assay [22] relates to RAW264.7. Put plainly: Neuroprotective activity in mouse RAW264.7 cells assessed as inhibition of LPS-stimulated nitric oxide release at 100 uM after 20 to 24 hrs by Griess assay relative to control. The assay is classed as functional.
The target in assay [23] is 5-hydroxytryptamine receptor 1A (Homo sapiens, UniProt P08908). Description: Inhibition of 5-HT1A receptor (unknown origin) by PDSP assay.
Chain of 5-hydroxytryptamine receptor 1A (P08908 whole entry): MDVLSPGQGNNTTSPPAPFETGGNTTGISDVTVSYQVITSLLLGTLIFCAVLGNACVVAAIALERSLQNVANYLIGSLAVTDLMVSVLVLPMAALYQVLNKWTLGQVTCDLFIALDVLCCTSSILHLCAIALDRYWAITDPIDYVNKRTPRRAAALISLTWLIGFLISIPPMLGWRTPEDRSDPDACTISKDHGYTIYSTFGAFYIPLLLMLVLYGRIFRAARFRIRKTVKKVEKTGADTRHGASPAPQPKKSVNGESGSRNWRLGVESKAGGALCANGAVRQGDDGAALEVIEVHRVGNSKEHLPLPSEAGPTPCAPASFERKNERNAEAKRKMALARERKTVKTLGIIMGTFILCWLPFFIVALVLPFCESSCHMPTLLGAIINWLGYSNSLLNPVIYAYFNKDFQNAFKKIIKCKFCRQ
Assay [24] can be described thus: Inhibition of rat brain BZP receptor by PDSP assay.

Chain of 5-hydroxytryptamine receptor 2A (P28223 whole entry): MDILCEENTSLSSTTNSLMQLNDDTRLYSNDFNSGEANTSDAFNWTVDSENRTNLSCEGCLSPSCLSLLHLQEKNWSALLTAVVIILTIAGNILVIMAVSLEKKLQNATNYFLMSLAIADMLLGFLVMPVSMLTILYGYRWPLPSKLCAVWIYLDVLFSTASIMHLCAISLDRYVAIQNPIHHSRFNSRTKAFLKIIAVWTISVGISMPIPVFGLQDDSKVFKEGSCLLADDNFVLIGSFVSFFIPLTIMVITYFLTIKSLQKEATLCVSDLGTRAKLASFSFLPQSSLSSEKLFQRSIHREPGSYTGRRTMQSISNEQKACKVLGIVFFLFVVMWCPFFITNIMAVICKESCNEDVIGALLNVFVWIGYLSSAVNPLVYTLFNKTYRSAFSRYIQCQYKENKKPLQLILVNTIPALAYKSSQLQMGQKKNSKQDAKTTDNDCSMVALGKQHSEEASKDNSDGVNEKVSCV
Chain of Kappa-type opioid receptor (P41145 whole entry): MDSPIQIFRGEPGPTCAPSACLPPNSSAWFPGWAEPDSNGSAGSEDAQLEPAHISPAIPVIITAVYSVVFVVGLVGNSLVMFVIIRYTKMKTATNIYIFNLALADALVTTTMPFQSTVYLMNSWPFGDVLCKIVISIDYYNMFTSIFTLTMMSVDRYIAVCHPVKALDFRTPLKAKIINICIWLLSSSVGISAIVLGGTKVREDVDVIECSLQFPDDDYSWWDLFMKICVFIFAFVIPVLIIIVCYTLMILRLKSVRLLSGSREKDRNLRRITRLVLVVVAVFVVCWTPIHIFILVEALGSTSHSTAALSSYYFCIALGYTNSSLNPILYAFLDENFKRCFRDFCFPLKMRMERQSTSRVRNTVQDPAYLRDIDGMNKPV
Chain of 5-hydroxytryptamine receptor 2B (P41595 whole entry): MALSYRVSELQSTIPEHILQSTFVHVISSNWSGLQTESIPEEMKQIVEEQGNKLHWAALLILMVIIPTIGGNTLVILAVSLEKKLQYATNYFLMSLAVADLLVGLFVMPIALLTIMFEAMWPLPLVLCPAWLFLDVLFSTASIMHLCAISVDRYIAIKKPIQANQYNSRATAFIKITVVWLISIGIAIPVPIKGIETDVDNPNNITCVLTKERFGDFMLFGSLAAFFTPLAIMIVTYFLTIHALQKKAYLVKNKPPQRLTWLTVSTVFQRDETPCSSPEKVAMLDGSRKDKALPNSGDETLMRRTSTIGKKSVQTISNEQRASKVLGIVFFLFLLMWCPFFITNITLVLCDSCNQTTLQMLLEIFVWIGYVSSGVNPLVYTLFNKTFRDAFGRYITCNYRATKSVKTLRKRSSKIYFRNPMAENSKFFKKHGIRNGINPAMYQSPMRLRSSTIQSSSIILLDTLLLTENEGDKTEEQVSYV
Chain of Histamine H4 receptor (Q9H3N8 whole entry): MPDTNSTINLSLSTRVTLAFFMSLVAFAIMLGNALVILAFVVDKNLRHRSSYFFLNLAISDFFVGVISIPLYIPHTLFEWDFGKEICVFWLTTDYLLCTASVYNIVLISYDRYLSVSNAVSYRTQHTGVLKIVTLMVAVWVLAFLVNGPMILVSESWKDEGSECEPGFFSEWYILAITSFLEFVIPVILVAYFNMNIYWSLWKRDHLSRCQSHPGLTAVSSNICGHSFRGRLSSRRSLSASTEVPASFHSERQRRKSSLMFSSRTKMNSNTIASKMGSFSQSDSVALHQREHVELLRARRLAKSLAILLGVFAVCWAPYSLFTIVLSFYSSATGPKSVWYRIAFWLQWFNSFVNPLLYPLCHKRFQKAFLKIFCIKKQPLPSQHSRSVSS
Chain of Mu-type opioid receptor (P35372 whole entry): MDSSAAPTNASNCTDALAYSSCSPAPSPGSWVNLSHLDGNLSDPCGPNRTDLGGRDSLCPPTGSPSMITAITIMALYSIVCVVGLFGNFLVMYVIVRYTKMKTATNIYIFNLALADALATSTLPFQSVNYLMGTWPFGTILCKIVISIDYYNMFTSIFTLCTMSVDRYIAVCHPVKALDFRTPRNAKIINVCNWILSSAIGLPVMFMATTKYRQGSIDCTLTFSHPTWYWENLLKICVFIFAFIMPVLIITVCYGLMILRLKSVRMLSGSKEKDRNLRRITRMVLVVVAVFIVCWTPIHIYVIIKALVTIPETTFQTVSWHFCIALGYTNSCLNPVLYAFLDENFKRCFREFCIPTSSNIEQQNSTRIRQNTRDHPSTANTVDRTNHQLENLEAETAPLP

On to `C1CCC(CN[C@H]2C3C4CC5C6C4CC3C6C52)CC1` (stereo partly drawn), for which, in assay [1], the inhibition at 30 µM is 10.2%. The inhibition at 50 µM in assay [2] came to 7.7%. Further, the inhibition result in assay [3] is “Dose-dependent effect”.
In the case of `C1C2C3CC4C2C2C1C3[C@H](NCC13C5C6C7C5C1C7C63)C42` (stereo partly drawn), the inhibition at 30 µM in assay [1] is 18.1%. In addition, in [3], the inhibition result was “Dose-dependent effect”. The pKi in assay [4] was 5.12; in assay [5], 6.09.
Consider `CN(CCCc1cccc(F)c1)[C@H]1C2C3CC4C2C(=O)C2C4C3C21` (stereo partly drawn), for which the pKi in assay [6] was 5.07; in assay [7], 5.69.
Take `CN(CCc1ccccn1)[C@H]1C2C3CC4C5C3CC2C5C41` (stereo partly drawn): the pKi in assay [8] was 5.55; in assay [9], 5.67; in assay [5] it was 6.03.
Consider `c1cc2c(cc1CN[C@H]1C3C4CC5C6C4CC3C6C51)OCO2` (stereo partly drawn), for which the pKi was 5.22 in assay [4] and 5.13 in assay [6].
For `CN(CC1CCCCC1)[C@H]1C2C3CC4C5C3CC2C5C41` (stereo partly drawn), in assay [1], the inhibition at 30 µM was 0%. Also, in assay [2], the inhibition at 50 µM was 30%. Also, the inhibition at 75 µM in [10] was 88.3%. Besides, the pKi in assay [11] is 8.03. For the same compound, the inhibition result in assay [3] was “Dose-dependent effect”.
Take `c1ccc(CCN[C@H]2C3C4CC5C6C4CC3C6C52)nc1` (stereo partly drawn): the negative logarithm of the Ki (pKi) in [12] was below 5.00; in assay [13] it was below 5.00; in [11] it was 5.46; in [14] it was below 5.00.
With `CN(CCCc1cccc(F)c1)[C@H]1C2C3CC4C5C3CC2C5C41` (stereo partly drawn), the pKi in assay [15] is below 5.00.
For the compound `CN(Cc1cccnc1)[C@H]1C2C3CC4C5C3CC2C5C41` (stereo partly drawn), the pKi in assay [5] is 5.78.
`CN(Cc1ccccc1)[C@H]1C2C3CC4C2C(=O)C2C4C3C21` (stereo partly drawn): in assay [16], the inhibition is below 50%.
In assay [14], `COc1ccc(CN[C@H]2C3C4CC5C6C4CC3C6C52)cc1OC` (stereo partly drawn) showed a pKi below 5.00.
As for `CN(CCc1ccccc1)[C@H]1C2C3CC4C5C3CC2C5C41` (stereo partly drawn), the pKi in [15] was 5.76; in assay [17] it was 5.57; in [18] it was 5.35.
With `c1ccc(CN[C@H]2C3C4CC5C6C4CC3C6C52)cc1` (stereo partly drawn), the negative logarithm of the Ki (pKi) is 5.44 in [19], 5.21 in [11] and 5.31 in assay [5]. In addition, the inhibition result in assay [20] is “inactive”.
Turning to `COc1cc(CN[C@H]2C3C4CC5C6C4CC3C6C52)cc(OC)c1OC` (stereo partly drawn), the pKi in [15] is 5.51; in [17] it was 5.71; in assay [5], 5.70. Moreover, in [20], the inhibition result is “inactive”.
In the case of `c1ccc(CCN[C@H]2C3C4CC5C6C4CC3C6C52)cc1` (stereo partly drawn), the pKi in assay [15], in assay [12] and in [21] was below 5.00 each time. The inhibition at 30 µM in assay [1] was found to be 7%. Moreover, the inhibition at 50 µM in assay [2] was 9.5%. Further, in assay [3], the inhibition result was “Dose-dependent effect”. Further, the inhibition at 100 µM in [22] is 17.5%.
As for `CN(Cc1ccccc1)[C@H]1C2C3CC4C5C3CC2C5C41` (stereo partly drawn), the pKi in assay [15] is below 5.00.
`CN(Cc1cccc(F)c1)[C@H]1C2C3CC4C2C(=O)C2C4C3C21` (stereo partly drawn) showed a pKi in assay [23] below 5.00.
Turning to `CN(Cc1ccc2c(c1)OCO2)[C@H]1C2C3CC4C5C3CC2C5C41` (stereo partly drawn), the negative logarithm of the Ki (pKi) in assay [24] was 5.31.
